According to patent US20240401154A1, “SYNTHESIS AND PREPARATION OF ULTRA-LOW VISCOSITY AND HIGH MAGNETIC SUSCEPTIBILITY MAGNETIC IONIC LIQUIDS” (priority 2023, published 2024):
Marks after values point to notes of the source that are not given here.

Columns and labels:
Assay type in all cases: physicochemical
[1] = Viscosity, Brookfield DVI cone and plate viscometer; conditions: 21.7° C.; neat MIL dried 48 hours under vacuum
Method: A Brookfield DVI cone and plate viscometer equipped with a CPA-51Z cone spindle was employed to obtain viscosity measurements at […] using approximately 0.5 g of each MIL after extensive drying for 48 hours under vacuum. Viscosity measurements were conducted at 21.7° C. for 15 lanthanide and transition metal MILs examined in this study.
Viscosity measurements were conducted at 21.7° C. for 15 lanthanide and transition metal MILs examined in this study.

[2] = Effective magnetic moment from magnetic susceptibility balance (MSB); conditions: per formula unit
Method: Magnetic properties were analyzed using a magnetic susceptibility balance (MSB, Sherwood Scientific, Cambridge, UK) and a Quantum Design Superconducting Quantum Interference Device (SQUID) magnetometer (MPMS XL-7). The magnetic properties of transition metal MILs were further studied using a SQUID magnetometer to confirm their paramagnetic nature as well as if any magnetic transition occurs in the samples.
Magnetic susceptibility (XM) was calculated through Equation (1).
Effective magnetic moment (μeff) was calculated through Equation (2). In Equation (2), T represents the temperature at which the magnetic susceptibility measurements were conducted.
15 MILs incorporating rare-earth and transition metals were examined using a magnetic susceptibility balance (MSB).

[3] = Solubility of MILs in organic solvents and water
Source text: The solubility of lanthanide and transition metal MILs was investigated in popular traditional organic solvents. […]
The solubility of lanthanide and transition metal MILs was investigated in popular traditional organic solvents.

[4] = Thermal stability, MIL as GC stationary phase with FID; conditions: exponential increase in response beyond 2,000 pA
Method: (§1) The thermal stability of MILs was measured from 40 to 350° C. at a ramp rate of 5° C. min^−1 by performing thermogravimetric analysis (TGA) using a NETZSCH STA 449 F1 Jupiter thermal analyzer (Selb, Germany). To further investigate the thermal stability of MILs using a more sensitive technique, the solvents were employed as a gas chromatographic (GC) stationary phase and subjected to an oven temperature program from 40 to 200° C. at a ramp rate of 1° C. min^−1 and decomposition/degradation products detected using an ultra-sensitive flame ionization detector (FID), with all measurements being performed on an Agilent Technologies 7890B gas chromatograph (Santa Clara, CA, USA).
To further investigate the thermal stability of MILs using a more sensitive technique, the solvents were employed as a gas chromatographic (GC) stationary phase and subjected to an oven temperature program from 40 to 200° C. at a ramp rate of 1° C. min^−1 and decomposition/degradation products detected using an ultra-sensitive flame ionization detector (FID).

[5] = Thermal stability by thermogravimetric analysis (TGA); conditions: TGA at 10% weight loss
Method: as §1
Volitization/degradation of MILs as a function of temperature were measured using thermogravimetric analysis. The thermal stability of magnetic ionic liquids was measured from 40 to 350° C. at a ramp rate of 5° C. min^−1 by performing thermogravimetric analysis (TGA) using a NETZSCH STA 449 F1 Jupiter thermal analyzer (Selb, Germany).
To investigate the ability of DGE-based MILs to withstand elevated temperatures without undergoing degradation/decomposition, their thermal stabilities were investigated using thermogravimetric analysis (TGA). FIG. 13 through FIG. 27 display thermograms for MILs 1 to 15. The thermogram results are summarized in greater detail in the following paragraphs.

[6] = acetone, chloroform, dichloromethane, acetonitrile, methanol, ethanol, diethyl ether, ethyl acetate, isopropanol at 20% (w/v)
[7] = hexane, heptane, benzene, toluene at 10% (w/v)
[8] = hexane, heptane, benzene, toluene at 20% (w/v)
[9] = twelve organic solvents (without acetonitrile) at 50% (w/v)

SMILES	Viscosity (cP) [1]	μeff, effective magnetic moment [2] [μB]	Solubility [3, 6]	Solubility [3, 7]	Solubility [3, 8]	Solubility [3, 9]	Solubility ([3]; water at 0.01% (w/v))	Onset of MIL volatilization (° C.)^1 [4] [°C]	Onset of MIL volatilization (° C.)^2 [5] [°C]	Solubility ([3]; acetonitrile at 50% (w/v))
CCCCCCCCOC(=O)c1ccc(C(=O)OCCCCCCCC)o1.CCCCCCCCOC(=O)c1ccc(C(=O)OCCCCCCCC)o1.CCCCCCCCOC(=O)c1ccc(C(=O)OCCCCCCCC)o1.CCCCCCCCOC(=O)c1ccc(C(=O)OCCCCCCCC)o1.CCCCCCCCOC(=O)c1ccc(C(=O)OCCCCCCCC)o1.CCCCCCCCOC(=O)c1ccc(C(=O)OCCCCCCCC)o1.O=C(C=C([O-])C(F)(F)F)C(F)(F)F.O=C(C=C([O-])C(F)(F)F)C(F)(F)F.O=C(C=C([O-])C(F)(F)F)C(F)(F)F.O=C(C=C([O-])C(F)(F)F)C(F)(F)F.O=C(C=C([O-])C(F)(F)F)C(F)(F)F.O=C(C=C([O-])C(F)(F)F)C(F)(F)F.[Ni+2].[Ni+2].[Ni+2] [compound 11]	453.5^b cP	5.51	S^b (soluble in acetone, chloroform, dichloromethane, acetonitrile, methanol, ethanol, diethyl ether, ethyl acetate, and isopropanol at 20% (w/v).)	S^a (soluble in hexane, heptane, benzene, and toluene at 10% (w/v).)	S^c (soluble in hexane, heptane, benzene, and toluene at 20% (w/v).)	S^d (soluble in acetone, chloroform, dichloromethane, methanol, ethanol, diethyl ether, ethyl acetate, isopropanol hexane, heptane, benzene, and toluene at 50% (w/v).)	S^f (insoluble in water at 0.01% (w/v).)	142	160.6	
O=C(C=C([O-])C(F)(F)F)C(F)(F)F.O=C(C=C([O-])C(F)(F)F)C(F)(F)F.O=C(C=C([O-])C(F)(F)F)C(F)(F)F.O=C(C=C([O-])C(F)(F)F)C(F)(F)F.O=C(C=C([O-])C(F)(F)F)C(F)(F)F.O=C(C=C([O-])C(F)(F)F)C(F)(F)F.O=C(COCC(=O)OC1CCCCC1)OC1CCCCC1.O=C(COCC(=O)OC1CCCCC1)OC1CCCCC1.O=C(COCC(=O)OC1CCCCC1)OC1CCCCC1.O=C(COCC(=O)OC1CCCCC1)OC1CCCCC1.O=C(COCC(=O)OC1CCCCC1)OC1CCCCC1.O=C(COCC(=O)OC1CCCCC1)OC1CCCCC1.[Co+2].[Co+2].[Co+2] [compound 7]	639.4 cP	8.11	S^b (soluble in acetone, chloroform, dichloromethane, acetonitrile, methanol, ethanol, diethyl ether, ethyl acetate, and isopropanol at 20% (w/v).)	S^a (soluble in hexane, heptane, benzene, and toluene at 10% (w/v).)	S^c (soluble in hexane, heptane, benzene, and toluene at 20% (w/v).)	S^d (soluble in acetone, chloroform, dichloromethane, methanol, ethanol, diethyl ether, ethyl acetate, isopropanol hexane, heptane, benzene, and toluene at 50% (w/v).)	S^f (insoluble in water at 0.01% (w/v).)	133	200.1	S^e (insoluble in acetonitrile at 50% (w/v).)
CCCCCCCCOC(=O)COCC(=O)OCCCCCCCC.CCCCCCCCOC(=O)COCC(=O)OCCCCCCCC.CCCCCCCCOC(=O)COCC(=O)OCCCCCCCC.CCCCCCCCOC(=O)COCC(=O)OCCCCCCCC.CCCCCCCCOC(=O)COCC(=O)OCCCCCCCC.CCCCCCCCOC(=O)COCC(=O)OCCCCCCCC.O=C(C=C([O-])C(F)(F)F)C(F)(F)F.O=C(C=C([O-])C(F)(F)F)C(F)(F)F.O=C(C=C([O-])C(F)(F)F)C(F)(F)F.O=C(C=C([O-])C(F)(F)F)C(F)(F)F.O=C(C=C([O-])C(F)(F)F)C(F)(F)F.O=C(C=C([O-])C(F)(F)F)C(F)(F)F.O=C(C=C([O-])C(F)(F)F)C(F)(F)F.O=C(C=C([O-])C(F)(F)F)C(F)(F)F.[Co+2].[Gd+3].[Gd+3] [compound 14]	149.1 cP	12.43	S^b (soluble in acetone, chloroform, dichloromethane, acetonitrile, methanol, ethanol, diethyl ether, ethyl acetate, and isopropanol at 20% (w/v).)	S^a (soluble in hexane, heptane, benzene, and toluene at 10% (w/v).)	S^c (soluble in hexane, heptane, benzene, and toluene at 20% (w/v).)	S^d (soluble in acetone, chloroform, dichloromethane, methanol, ethanol, diethyl ether, ethyl acetate, isopropanol hexane, heptane, benzene, and toluene at 50% (w/v).)	S^f (insoluble in water at 0.01% (w/v).)	126	172.9	
CCCCCCCCOC(=O)COCC(=O)OCCCCCCCC.CCCCCCCCOC(=O)COCC(=O)OCCCCCCCC.CCCCCCCCOC(=O)COCC(=O)OCCCCCCCC.CCCCCCCCOC(=O)COCC(=O)OCCCCCCCC.CCCCCCCCOC(=O)COCC(=O)OCCCCCCCC.CCCCCCCCOC(=O)COCC(=O)OCCCCCCCC.O=C(C=C([O-])C(F)(F)F)C(F)(F)F.O=C(C=C([O-])C(F)(F)F)C(F)(F)F.O=C(C=C([O-])C(F)(F)F)C(F)(F)F.O=C(C=C([O-])C(F)(F)F)C(F)(F)F.O=C(C=C([O-])C(F)(F)F)C(F)(F)F.O=C(C=C([O-])C(F)(F)F)C(F)(F)F.O=C(C=C([O-])C(F)(F)F)C(F)(F)F.O=C(C=C([O-])C(F)(F)F)C(F)(F)F.[Co+2].[Dy+3].[Dy+3] [compound 13]	137.2 cP	15.38	S^b (soluble in acetone, chloroform, dichloromethane, acetonitrile, methanol, ethanol, diethyl ether, ethyl acetate, and isopropanol at 20% (w/v).)	S^a (soluble in hexane, heptane, benzene, and toluene at 10% (w/v).)	S^c (soluble in hexane, heptane, benzene, and toluene at 20% (w/v).)	S^d (soluble in acetone, chloroform, dichloromethane, methanol, ethanol, diethyl ether, ethyl acetate, isopropanol hexane, heptane, benzene, and toluene at 50% (w/v).)	S^f (insoluble in water at 0.01% (w/v).)	131	182.3	
CCCCCCCCOC(=O)COCC(=O)OCCCCCCCC.CCCCCCCCOC(=O)COCC(=O)OCCCCCCCC.CCCCCCCCOC(=O)COCC(=O)OCCCCCCCC.CCCCCCCCOC(=O)COCC(=O)OCCCCCCCC.CCCCCCCCOC(=O)COCC(=O)OCCCCCCCC.CCCCCCCCOC(=O)COCC(=O)OCCCCCCCC.O=C(C=C([O-])C(F)(F)F)C(F)(F)F.O=C(C=C([O-])C(F)(F)F)C(F)(F)F.O=C(C=C([O-])C(F)(F)F)C(F)(F)F.O=C(C=C([O-])C(F)(F)F)C(F)(F)F.O=C(C=C([O-])C(F)(F)F)C(F)(F)F.O=C(C=C([O-])C(F)(F)F)C(F)(F)F.[Co+2].[Co+2].[Co+2] [compound 4]	31.6 cP	8.57	S^b (soluble in acetone, chloroform, dichloromethane, acetonitrile, methanol, ethanol, diethyl ether, ethyl acetate, and isopropanol at 20% (w/v).)	S^a (soluble in hexane, heptane, benzene, and toluene at 10% (w/v).)	S^c (soluble in hexane, heptane, benzene, and toluene at 20% (w/v).)	S^d (soluble in acetone, chloroform, dichloromethane, methanol, ethanol, diethyl ether, ethyl acetate, isopropanol hexane, heptane, benzene, and toluene at 50% (w/v).)	S^f (insoluble in water at 0.01% (w/v).)	185	262.9	
